Counter-ions that a name gives are not always drawn.
What was measured:
Plasmodium falciparum [1] = assay: NOVARTIS: Inhibition of Plasmodium falciparum 3D7 (drug-susceptible) proliferation in erythrocyte-based infection assay; type: functional, organism-based; conditions: Plasmodium falciparum, 3D7
Plasmodium falciparum [2] = assay: NOVARTIS: Inhibition of Plasmodium falciparum W2 (drug-resistant) proliferation in erythrocyte-based infection assay; type: functional, organism-based; conditions: Plasmodium falciparum, W2; read-out: EC50
[3] = NOVARTIS: Cytotoxicity against human hepatocellular carcinoma cell line (Huh7); type: toxicity, cell-based, Huh-7; conditions: Huh7 cells (hepatocellular carcinoma cell line)

SMILES	EC50 (Plasmodium falciparum [1]) [nM]	EC50 (Plasmodium falciparum [2]) [nM]	CC50 [3] [nM]
CCCCCCc1ccc(C(=O)NCCCCNc2ccnc3cc(Cl)ccc23)cc1	241	169	> 10800
OCC1CCCCN1Cc1cc(-c2ccccc2)ccc1O (stereo unspecified)	1030	< 23.2	> 10000
O=C(c1cccc([N+](=O)[O-])c1)c1ccc(Cl)c(Cl)c1	612	57.5	62400
Cc1ccc2cc3cc(C(=O)NC(C)C)sc3nc2c1	989	1120	> 10000
O=[N+]([O-])c1ccc(N2CCN(C(=S)Nc3ccccc3)CC2)cc1	6010	1640	> 100000
CCOC(=O)c1cnc2cc(Cl)c(OC)cc2c1NCCCN1CCOCC1	1370	1340	> 10000
Oc1ccc(-c2ccccc2)cc1CNCCc1ccc(F)cc1	691	< 9.74	> 10000
CCN1/C(=C/c2sc3ccc(-c4ccccc4)cc3[n+]2CCO)C=Cc2ccccc21	955	1340	> 10000
C[C@H](Nc1cncc(-c2cccc(OC(F)(F)F)c2)n1)c1ccccc1	> 264	1180	> 10000
N=c1n(CCN2CCCCC2)c2ccccc2n1CC(O)COc1ccc(Cl)cc1 (stereo unspecified)	521	279	6270
Cc1ccn2c(NC(C)(C)CC(C)(C)C)c(-c3ccccc3OC(=O)c3ccc(F)cc3)nc2c1	897	8.7	> 10000
O=C(Nc1ccc2c(c1)OCO2)c1cc2cc(C3(O)CCN(CC4CCCCC4)CC3)ccc2o1	442	311	> 100000
CCOC(=O)CCC(=O)Oc1ccccc1-c1nc2ccccn2c1NC(C)(C)CC(C)(C)C	1060	178	> 10000
COC(=O)C1=C(C(=O)OC)SC(=C2C(=S)C(C)(C)N(C(=O)c3ccc([N+](=O)[O-])cc3)c3ccc(C)cc32)S1	> 371	> 1150	> 10000
Cc1oc(-c2cccc(C(F)(F)F)c2)cc1C(=O)O	> 887	267	> 10000
CCCCCCN(C(=O)COc1ccc(Cl)cc1)C(CC)c1nc2ccccc2c(=O)n1-c1cccc(Cl)c1 (stereo unspecified)	433	1140	> 10000
COC(=O)c1ccccc1NC(=O)CSc1nc2ccsc2c(=O)n1CCN1CCCC1	> 11200	> 11200	> 100000
CC(C)N(CC(=O)Nc1cc(C(C)(C)C)nn1-c1ccc(Cl)c(Cl)c1)C(=O)c1ccc(Cl)c(Cl)c1	1010	356	> 10000
COc1ccccc1-c1nnc(Nc2nc3cc4c(cc3s2)OCO4)o1	> 1050	> 1250	> 10000
CC1(C)N=C(N)N=C(N)N1c1ccc(Cl)cc1 [CHLORCYCLOGUANIL HYDROCHLORIDE]	0.986	884	27400
COc1cc(OC)cc(C(=O)N2CCN(Cc3cccc(Br)c3)CC2)c1	> 12500	5920	> 100000
O=C(NC(=S)Nc1ccc(NC(=O)c2cccs2)cc1)c1ccco1	468	311	> 100000
Clc1cccc(CCNC2CCN(CCc3ccccc3)CC2)c1	170	651	12400
CCCCN(CC)C(=O)CSc1nc2ccccc2c(=O)n1Cc1ccco1	> 594	> 1250	> 10000
C(=Nc1cnc2ccccc2c1)c1c2n(c3ccccc13)CCCN2	663	1510	> 100000
O=C(Cc1ccccc1)NCc1nnc(SCC(=O)N2N=C(c3cccs3)CC2c2ccc(F)cc2)n1Cc1ccccc1 (stereo unspecified)	8850	984	> 100000
Cc1nc(N2CCC(C)CC2)c2c(C)c(C(=O)Nc3ccc(F)cc3)sc2n1	792	> 912	> 10000

Reference: ChEMBL document CHEMBL1156829 (Proc Natl Acad Sci U S A, 2008)
